SMILES strings stand for the structures.

Common to all, as to experiment: MIC against various organisms (broth dilution)
Common to all, as to format: cell-based
(In general: Dilution methods test growth across graded concentrations, often in twofold steps.)

Assay [1] relates to S. pyogenes 3565. The following applies: Streptococcus pyogenes. The procedure:
(§1) Using a standard broth dilution method in microtitre, compounds were tested for antibacterial activity. The compounds in the above examples gave minimum inhibitory concentrations (MICS) less than 1 microgram per millilitre against erythromycin-sensitive and erythromycin-resistant strains of Streptococcus pneumoniae and Streptococcus pyogenes.
(§2) In addition, the MIC (1 μg/mL) of test compounds against various organisms was determined including:
(§3) S. aureus Smith ATCC 13709, S. pnetnioniae SP030, S. pyogenes 3565, E. faecalis ATCC 29212, H. influenza ATCC 49247, M. catarrhalis ATCC 23246.

The test system of assay [2] is H. influenzae ATCC 49247. The following applies: Haemophilus influenzae, ATCC49247. The procedure: as §1, §2, §3
The subject of assay [3] is S. pneumoniae SP030. The following applies: Streptococcus pneumoniae. The procedure: as §1, §2, §3
The subject of assay [4] is E. faecalis ATCC 29212. The following applies: Enterococcus faecalis, ATCC29212. The procedure:
as §1, §2, §3

Assay [5] deals with S. aureus Smith ATCC 13709. The following applies: Staphylococcus aureus, ATCC13709. The procedure: as §1, §2, §3
Assay [6] relates to M. catarrhalis ATCC 23246. To be noted: Moraxella catarrhalis, ATCC23246. The procedure:
as §1, §2, §3

Consider `CC[C@H]1OC(=O)[C@H](C)[C@@H](O[C@H]2C[C@@](O)(OC)[C@@H](NC(=O)CCOCCNc3cc4c(=O)c(C(=O)O)cn(C5CC5)c4cc3Cl)[C@H](C)O2)[C@H](C)[C@@H](OC2O[C@H](C)C[C@H](N(C)C)[C@H]2O)[C@](C)(O)C[C@@H](C)CN(C)[C@H](C)[C@@H](O)[C@]1(C)O` (stereo partly drawn) [Example 1], for which the MIC in assay [1] is less than 1 µg/mL; in assay [2] it was less than 2 µg/mL; in assay [3], less than 1 µg/mL; in assay [4] it was less than 1 µg/mL; in assay [5], less than 1 µg/mL; in assay [6] it was less than 2 µg/mL.
Consider `CC[C@H]1OC(=O)[C@H](C)[C@@H](O[C@H]2C[C@@](O)(OC)[C@@H](NC(=O)CCOCCNc3cc4c(=O)c(C(=O)O)cn(C5CC5)c4cc3Cl)[C@H](C)O2)[C@H](C)[C@@H](O[C@@H]2O[C@H](C)C[C@H](N(C)C)[C@H]2O)[C@](C)(O)C[C@@H](C)CN(C)[C@H](C)[C@@H](O)[C@]1(C)O` [Example 2], for which the MIC in assay [1] is less than 1 µg/mL; in assay [2], less than 2 µg/mL; in assay [3], less than 1 µg/mL; in assay [4], less than 1 µg/mL; in assay [5] it was less than 1 µg/mL; in assay [6], less than 2 µg/mL.
As for `CC[C@@H]1OC(=O)[C@H](C)[C@H](O[C@@H]2C[C@@](O)(OC)[C@@H](NC(=O)CCOCCOc3cc4c(=O)c(C(=O)O)cn(C5CC5)c4cc3Cl)[C@H](C)O2)[C@@H](C)[C@H](O[C@@H]2O[C@H](C)C[C@H](N(C)C)[C@@H]2O)[C@](C)(O)C[C@H](C)CN(C)[C@H](C)[C@@H](O)[C@]1(C)O` [Example 3, 4″-(S)-(3-[2-(3-Carboxy-7-chloro-1-cyclopropyl-4-oxo-1,4-dihydro-quinolin-6-yloxy)ethoxy]-propionylamino]-4″-deoxyazithromycin], the MIC in assay [1] is less than 1 µg/mL; in assay [2], less than 2 µg/mL; in assay [3] it was less than 1 µg/mL; in assay [4], less than 1 µg/mL; in assay [5], less than 1 µg/mL; in assay [6] it was less than 2 µg/mL.

(Values after patent US20080221158A1, “Novel 14 and 15 Membered Ring Compounds” (PLIVA - Istrazivacki Institut d.o.o, priority 2003, published 2008).)
